In patent US20100303904A1, “TABLET WITH REMEDIAL COMPOSITION AND METHODS FOR TREATING MEDICAL DISORDERS AND AILMENTS” (BIO-PRO MEDICAL LTD., priority 2007, published 2010):

Columns and labels:
[1] = test system: Aberrant Crypt Foci (ACF); assay: DMH-induced CRC model of aberrant crypt foci (ACF) in rats (Example 1); format: in vivo, Wistar rats; details: DMH 30 mg/kg rats; oral gavage; colons stained 60 days after DMH; Coltect 150 mg/kg, 5-ASA 50 mg/kg
Experimental: Age- and sex-matched 23 Wistar rats were purchased from the animal facilities at the Tel-Aviv Sourasky Medical Center (TASMC). The rats were injected subcutaneously twice a week for two weeks with 0.3 ml of 30 mg/kg body weight DMH (Sigma-Aldrich, Israel) dissolved in PBS, and groups (n=5) were randomly divided as follows (Table 1): The Coltect mixture was dissolved in a solution of DMSO (50%) and tap water. The solution was administered to the rats by oral gavage for five days, starting at the first day of DMH injections. During the experiment, the rats were weighed twice a week. Sixty days after DMH injections the rats were sacrificed by CO2 flow. The colons were removed and flushed with isotonic saline solution, opened longitudinally, cut into three parts of equal length, and labeled as proximal, middle and distal segments. The colons were laid open on a Wattman paper and fixed flat in 4% buffered formalin solution. The ACF were visualized and counted by using methylene blue staining (0.2% solution) and photographed. […] The number and multiplicity of ACF for each colonic segment were evaluated and recorded. The number and multiplicity of ACF were recorded separately for each segment. To determine multiplicity of ACF, the number of crypts in each focus was defined and recorded.

[2] = DSS-induced IBD model in mice (Example 2); format: in vivo, C57BL mice; details: first experiment (FIG. 4A); DSS 2.5%; Coltect 150 mg/kg, 5-ASA 50 mg/kg oral gavage 7 days
Experimental: Age- and sex-matched C57BL 5-weeks old female mice were obtained from Harlan Laboratories, Israel. […] Four mice received saline (2.5%) and served as the negative control group. The mice were randomly divided into groups (n=8) and received the corresponding treatment starting from the first day for 7 days (Table 3). The treatments were given in doses of 0.5 ml of tap water with 2% DMSO by oral gavage. The following doses were used: Coltect-150 mg/kg body weight; 5-ASA-50 mg/kg body weight. All mice were sacrificed 7 days after the enema, their spleen and colon were removed, fixed in 10% formalin for histological evaluation and parts were frozen at […] for later examination. For macroscopic injury evaluation a revised colonic damage scoring system was used as described by Morris et al. Thus, the severity of colitis was determined based on the following parameters: • 1. Disease Activity Index (DAI): weight loss, gross bleeding, stool consistency (Table 2)—were daily recorded. • 2. Spleen weight. • 3. Colon length. • 4. Histological score. For histological injury evaluation tissues fixed in 10% formalin, were embedded in paraffin wax and cut. 4 μm sections were histologically stained and evaluated by light microscopy for ulceration and inflammation. [table]

[3] = TNBS-induced IBD model in rats (Example 3); format: in vivo, Wistar rats; details: TNBS-induced model (FIG. 6); compared to negative and positive controls
Experimental: One day before the experiment the rats were weighted, marked according to the groups, and fasted for 24 hours (for colon emptying). At the day of the experiment the rats were anesthetized by an intra-peritoneal injection of halothene and colitis was induced by intra-rectal administration of 0.4 ml of a 25 mg/ml TNBS solution dissolved in 50% ethanol using an 8-cm long rubber catheter. Then, 0.4 ml of air was injected and the rats were kept in a Trendelenburg position for 30 sec to ensure that all TNBS solution left the catheter. Three rats received intra-rectal administration of saline and served as the negative control group. Coltect, 5-ASA, or their combination, were delivered by daily gavage of 0.5 ml solution starting from day 0. All rats were sacrificed after 7 days. Their 10-cm distal colon was removed, opened longitudinally along the anti-mesenteric side and was gently washed with ice-cold saline in order to remove all luminal content. Colon wet weight was weighed and the colonic injury was immediately examined under a stereomicroscope and the visible damage was scored, then part of the colons was placed in 10% formalin for histological evaluation and parts were frozen at […] for later evaluation. The induction and severity of colitis were evaluated by measuring: • 1. Daily body weight. • 2. Colon weight. • 3. Macro-Histological score damage.

[4] = test system: Aberrant Crypt Foci (ACF); assay: DMH-induced ACF formation, Coltect versus its ingredients (Example 5a); format: in vivo, Wistar rats; details: DMH 50 mg/kg rats; daily oral gavage 2 weeks; sacrificed after 2 months (FIG. 10A)
Experimental: In these experiments the concentration of the ingredients used was determined based on their ratio in the Coltect mixture. As used in the above experiments, the Coltect concentration administered to the model animals was 150 mg/kg. Since a ratio of ⅔ Curcumin to ⅓ Green Tea was used in the Coltect mixture, the administered Curcumin concentration was 100 mg/kg and the Green tea concentration was 50 mg/kg. The Curcumin to Selenium ratio in the Coltect mixture was 500 mg Curcumin to 0.1 mg Selenium, therefore, the administered Selenium concentration was 0.02 mg/kg body weight. The final administered concentrations of the Coltect components are presented in Table 6 below: Forty seven age- and sex-matched Wistar rats were obtained from the animal facility at TASMC. The rats were injected subcutaneously twice a week for two weeks with 0.3 ml of 50 mg/kg body weight DMH (Sigma-Aldrich, Israel) dissolved in PBS, and groups were randomly divided as shown in Table 7. The Coltect compound and its components were daily administered simultaneously for 2 weeks by oral gavage. The rats were sacrificed after 2 months. Reference is now made to FIG. 9 presenting Methylene blue ACF staining performed according to the protocol described in the above Example 1, of normal mucosa (A) aberrant crypt foci containing small ACF with 1-3 crypts (B) and large ACF with more than three crypts (C).

[5] = DSS-induced colitis in mice, Coltect versus its components (Example 5b); format: in vivo, C57BL mice
Experimental: In these experiments the concentration of the ingredients used was determined based on their ratio in the Coltect mixture. As used in the above experiments, the Coltect concentration administered to the model animals was 150 mg/kg. Since a ratio of ⅔ Curcumin to ⅓ Green Tea was used in the Coltect mixture, the administered Curcumin concentration was 100 mg/kg and the Green tea concentration was 50 mg/kg. The Curcumin to Selenium ratio in the Coltect mixture was 500 mg Curcumin to 0.1 mg Selenium, therefore, the administered Selenium concentration was 0.02 mg/kg body weight.
Age- and sex-matched C57BL 5-weeks old female mice were obtained from Harlan Laboratories, Israel. After one week of acclimation, the mice (n=52) were treated with 2.5% DSS administered in the drinking water for 5 days ad libitum, followed by two days of tap water. The treatments were given in doses of 0.3 ml of tap water with 2% DMSO by oral gavage. The mice were randomly divided into 8 sub-groups (n=6) and a control group (n=4) treated as described in Table 8.

| SMILES | Number of crypts in treated colons: 1-3 crypts [1] | Number of crypts in treated colons: >4 crypts [1] | DAI score [2] | Changes in body weight [3] | Reduction in number of ACFs relative to the positive control [4] | DAI score ([5]; DSS 2.5% mice (FIG. 11), oral gavage) | Colon length, in words ([5]; DSS-induced mice, day seven (FIG. 12)) |
| --- | --- | --- | --- | --- | --- | --- | --- |
| Nc1ccc(O)c(C(=O)O)c1 [5-ASA, 5-aminosalicylic acid] | 28 ± 4.1 | 11.6 ± 3.9 | relatively higher DAI scores | no substantial changes in body weight |  |  |  |
| C[Se]CC[C@H](N)C(=O)O [Selenium, Selenomethionine] |  |  |  |  | about 30% | 2.33±1.33 | longer colons |
